Assay results taken from patent US20240228474A1, “ANTIBACTERIAL COMPOUND” (DISCUVA LIMITED, priority 2021, published 2024).

Key:
[1] = test system: E. coli BAA-2469 (NDM-1 positive); assay: Murine bacteraemia / bloodstream infection proof-of-concept study, IV bolus; assay type: in vivo
Experimental: (§1) Compound (I) and comparative compound (III) were evaluated in proof-of-concept studies in murine models for the treatment of a respiratory infection with Gram-negative bacteria of the order Enterobacterales, a bacteraemia or bloodstream infection with Gram-negative bacteria of the order Enterobacterales, and a urinary tract infection with Gram-negative bacteria of the order Enterobacterales. Each dot, triangle or square indicator represents a single mouse. LOD refers to the limit of detection of the bacteria. […] Each of the proof-of-concept studies was carried out separately. By vehicle is meant pharmaceutically acceptable carrier or excipient.
For the proof-of-concept study for the treatment of a bacteraemia or bloodstream infection with Gram-negative bacteria of the order Enterobacterales, CD-1 mice were infected with human urine isolate E. coli BAA-2469 (NDM-1 positive). One hour after infection (‘pre-treatment’ in FIG. 3), a vehicle (20% hydroxypropyl β cyclodextrin) containing no compound (I) or comparative compound (III), or a vehicle (20% hydroxypropyl β cyclodextrin) containing compound (I) or comparative compound (III), was administered by as a single dose IV bolus at 20 mg/kg.

E. coli UT189 = assay: Murine urinary tract infection proof-of-concept study, IV bolus; assay type: in vivo
Experimental: as §1, with “excipient. For the proof-of-concept study for the treatment of a urinary tract infection with Enterobacterales, female C3H/HeN mice were infected with E. coli UT189. Twenty-four hours after infection (‘pre-treatment’ in FIGS. 4a-c), a vehicle (20% hydroxypropyl β cyclodextrin) containing no compound (I) or comparative compound (III), or a vehicle (20% hydroxypropyl β cyclodextrin) containing compound (I) or comparative compound (III), was administered by IV bolus of 20 mg/kg, TID (8 hrs apart), over 3 days.” for “excipient.”

[2] = IV bolus 20 mg/kg TID over 3 days, 96 h after initial infection
[3] = difference in log reduction, 96 h

Cc1cnccc1-c1[nH]c(N)nc1-c1ccc2c(c1)N(C(=O)C(C)(C)N)CCO2 [Compound (I), 2-amino-1-(6-(2-amino-5-(3-methylpyridin-4-yl)-1H-imidazol-4-yl)-2,3-dihydro-4H-benzo[b][1,4]oxazin-4-yl)-2-methylpropan-1-one]
reduction of bacterial burden in the blood compared to vehicle ([1]; CD-1 mice, single dose IV bolus 20 mg/kg, 9 h from initial infection): 7.43 log | more efficacious than comparative compound (III), blood ([1]; difference in log reduction, 9 h): 2.5 log | bacterial burden (CFU) in the blood at end of study ([1]; single dose IV bolus 20 mg/kg, 9 h from initial infection): below the limit of detection (LOD) | bacterial burden in the urine at end of study (E. coli UT189; IV bolus 20 mg/kg TID over 3 days, 96 h): below the limit of detection (LOD) | reduction of bacterial burden in the bladder compared to vehicle (E. coli UT189; [2]): 5.67 log | reduction of bacterial burden in the kidney compared to vehicle (E. coli UT189; [2]): 4.73 log | more efficacious than comparative compound (III), bladder (E. coli UT189; [3]): 3 log | more efficacious than comparative compound (III), urine (E. coli UT189; [3]): 3 log | reduction of bacterial burden in the urine compared to vehicle (E. coli UT189; female C3H/HeN mice, IV bolus 20 mg/kg TID over 3 days, 96 h after initial infection): 6.59 log
